Laboratory results as given in patent publication US12304932B2, “PACAP stabilized peptide” (SENJU PHARMACEUTICAL CO., LTD., priority 2017, dated 2025).
Square brackets hold non-standard residues; d marks the D form. Peptide text beside a SMILES is read from it. Ala(1H-tetrazol-5-yl) = N[C@@H](Cc1nnn[nH]1)C(=O)O

Assay: Peptide stability tests 2 and 3: Tris buffer pH 7.0, stored at 60° C., HPLC conditions 2
Type: physicochemical
Conditions: 100 μM peptide, Tris buffer pH 7.0, 60° C.; for survival rate after correction for water, 60° C., 2-week storage: 2 weeks
Procedure: (§1) Peptides 1, 2 and 6 to 9 synthesized in Example 2 were weighed and dissolved in Tris buffer (pH 7.0) to prepare 1.0 mM peptide solutions. The solutions were filtered with a Chromatdisk (product of Merck Millipore, Millex-GV, 0.22 μm). Each filtrate was diluted to 100 μM with Tris buffer (pH 7.0) and dispensed into a tube (Protein LoBind Tube by Eppendorf Co.). The prepared peptide solutions were incubated for 1 week or 2 weeks in a 60° C. thermostatic bath to obtain stored samples. A simultaneously prepared sample among the peptide solutions that was not stored was used as a standard sample (initial sample). The standard sample and the stored samples were stored at −30° C. until sample analysis.
Each stored sample was measured under the following HPLC analysis conditions 2, and the survival rate after correction for water for each peptide among the stored samples was calculated in the same manner as Example 3.
Column: XSelect CSH C18 by Waters Co., 5 μm, 4.6×250 mm
Guard column: XSelect CSH C18 by Waters. Co., 5 μm, 4.6×20 mm Guard Cartridge
Detection wavelength: 220 nm
Mobile phase A: 0.1% formic acid in water
Mobile phase B: 0.1% formic acid in acetonitrile
Measuring time: 20 minutes
Measuring sample injection rate: 50 μL
Column temperature: 40° C.
Mobile phase delivery: The mixing ratio of mobile phase A and mobile phase B was varied as shown in Table 5 for linear concentration gradient control.
as §1, with “Peptides 12 to 25, 27” for “Peptides 1, 2”, “and 28” for “and 6 to 9”, “for one” for “for 1”
The survival rate after correction for water for each peptide among the stored samples was calculated in the same manner as Example 4, and the results are shown in Table 7.
as §1, with “29” for “1, 2 and 6”, “34” for “9”, “for” for “for 1 week or”
The survival rate after correction for water for each peptide among the stored samples was calculated in the same manner as Example 4, and the results are shown in Table 7-2.

Structure (SMILES) | survival rate after correction for water, 60° C., 1-week storage [%] | survival rate after correction for water, 60° C., 2-week storage [%]
CC[C@H](C)[C@H](NC(=O)CNC(=O)[C@H](Cc1nnn[nH]1)NC(=O)[C@H](CO)NC(=O)[C@H](Cc1c[nH]cn1)NC(C)=O)C(=O)N[C@@H](Cc1ccccc1)C(=O)N[C@H](C(=O)N[C@@H](Cc1nnn[nH]1)C(=O)N[C@@H](CO)C(=O)N[C@@H](Cc1ccc(O)cc1)C(=O)N[C@@H](CO)C(=O)N[C@@H](CCCNC(=N)N)C(=O)N[C@@H](Cc1ccc(O)cc1)C(=O)N[C@@H](CCCNC(=N)N)C(=O)N[C@@H](CCCCN)C(=O)N[C@@H](CCC(N)=O)C(=O)N[C@@H](CC(C)C)C(=O)N[C@@H](C)C(=O)N[C@H](C(=O)N[C@@H](CCCCN)C(=O)N[C@@H](CCCCN)C(=O)N[C@@H](Cc1ccc(O)cc1)C(=O)N[C@@H](CC(C)C)C(=O)N[C@@H](C)C(=O)N[C@@H](C)C(=O)N[C@H](C(=O)N[C@@H](C)C(N)=O)C(C)C)C(C)C)[C@@H](C)O [Peptide 20] (Ac-HS[Ala(1H-tetrazol-5-yl)]GIFT[Ala(1H-tetrazol-5-yl)]SYSRYRKQLAVKKYLAAVA-NH2) | 93.9 | 91.8
CC[C@H](C)[C@H](NC(=O)CNC(=O)[C@H](Cc1nnn[nH]1)NC(=O)[C@H](CO)NC(=O)[C@H](Cc1c[nH]cn1)NC(C)=O)C(=O)N[C@@H](Cc1ccccc1)C(=O)N[C@H](C(=O)N[C@@H](Cc1nnn[nH]1)C(=O)N[C@@H](CO)C(=O)N[C@@H](Cc1ccc(O)cc1)C(=O)N[C@@H](CO)C(=O)N[C@@H](CCCNC(=N)N)C(=O)N[C@@H](Cc1ccc(O)cc1)C(=O)N[C@@H](CCCNC(=N)N)C(=O)N[C@@H](CCCNC(=N)N)C(=O)N[C@@H](CCC(N)=O)C(=O)N[C@@H](CC(C)C)C(=O)N[C@@H](C)C(=O)N[C@H](C(=O)N[C@@H](CCCNC(=N)N)C(=O)N[C@@H](CCCNC(=N)N)C(=O)N[C@@H](Cc1ccc(O)cc1)C(=O)N[C@@H](CC(C)C)C(=O)N[C@@H](C)C(=O)N[C@@H](C)C(=O)N[C@H](C(=O)N[C@@H](CC(C)C)C(N)=O)C(C)C)C(C)C)[C@@H](C)O [Peptide 21] (Ac-HS[Ala(1H-tetrazol-5-yl)]GIFT[Ala(1H-tetrazol-5-yl)]SYSRYRRQLAVRRYLAAVL-NH2) | 97.8 | 93.5
CC[C@H](C)[C@H](NC(=O)CNC(=O)[C@H](Cc1nnn[nH]1)NC(=O)[C@H](CO)NC(=O)[C@H](Cc1c[nH]cn1)NC(C)=O)C(=O)N[C@@H](Cc1ccccc1)C(=O)N[C@H](C(=O)N[C@@H](Cc1nnn[nH]1)C(=O)N[C@@H](CO)C(=O)N[C@@H](Cc1ccc(O)cc1)C(=O)N[C@@H](CO)C(=O)N[C@@H](CCCNC(=N)N)C(=O)N[C@@H](Cc1ccc(O)cc1)C(=O)N[C@@H](CCCNC(=N)N)C(=O)N[C@@H](CCCNC(=N)N)C(=O)N[C@@H](CCC(N)=O)C(=O)N[C@@H](CC(C)C)C(=O)N[C@@H](C)C(=O)N[C@H](C(=O)N[C@@H](CCCNC(=N)N)C(=O)N[C@@H](CCCNC(=N)N)C(=O)N[C@@H](Cc1ccc(O)cc1)C(=O)N[C@@H](CC(C)C)C(=O)N[C@@H](C)C(=O)N[C@@H](C)C(=O)N[C@H](C(=O)N[C@@H](CC(C)C)C(=O)NCC(=O)N[C@@H](CCCNC(=N)N)C(=O)N[C@@H](CCCNC(=N)N)C(N)=O)C(C)C)C(C)C)[C@@H](C)O [Peptide 22] (Ac-HS[Ala(1H-tetrazol-5-yl)]GIFT[Ala(1H-tetrazol-5-yl)]SYSRYRRQLAVRRYLAAVLGRR-NH2) | 98.2 | –
CC[C@H](C)[C@H](NC(=O)[C@H](C)NC(=O)[C@H](Cc1nnn[nH]1)NC(=O)[C@H](CO)NC(=O)[C@H](Cc1c[nH]cn1)NC(C)=O)C(=O)N[C@@H](Cc1ccccc1)C(=O)N[C@H](C(=O)N[C@@H](Cc1nnn[nH]1)C(=O)N[C@@H](CO)C(=O)N[C@@H](Cc1ccc(O)cc1)C(=O)N[C@@H](CO)C(=O)N[C@@H](CCCNC(=N)N)C(=O)N[C@@H](Cc1ccc(O)cc1)C(=O)N[C@@H](CCCNC(=N)N)C(=O)N[C@@H](CCCCN)C(=O)N[C@@H](CCC(N)=O)C(=O)N[C@@H](CC(C)C)C(=O)N[C@@H](C)C(=O)N[C@H](C(=O)N[C@@H](CCCCN)C(=O)N[C@@H](CCCCN)C(=O)N[C@@H](Cc1ccc(O)cc1)C(=O)N[C@@H](CC(C)C)C(=O)N[C@@H](C)C(=O)N[C@@H](C)C(=O)N[C@H](C(=O)N[C@@H](CC(C)C)C(N)=O)C(C)C)C(C)C)[C@@H](C)O [Peptide 23] (Ac-HS[Ala(1H-tetrazol-5-yl)]AIFT[Ala(1H-tetrazol-5-yl)]SYSRYRKQLAVKKYLAAVL-NH2) | 96.5 | 93.1
CC[C@H](C)[C@H](NC(=O)CNC(=O)[C@H](Cc1nnn[nH]1)NC(=O)[C@H](C)NC(=O)[C@H](Cc1c[nH]cn1)NC(C)=O)C(=O)N[C@@H](Cc1ccccc1)C(=O)N[C@H](C(=O)N[C@@H](Cc1nnn[nH]1)C(=O)N[C@@H](C)C(=O)N[C@@H](Cc1ccc(O)cc1)C(=O)N[C@@H](CO)C(=O)N[C@@H](CCCNC(=N)N)C(=O)N[C@@H](Cc1ccc(O)cc1)C(=O)N[C@@H](CCCNC(=N)N)C(=O)N[C@@H](CCCCN)C(=O)N[C@@H](CCC(N)=O)C(=O)N[C@@H](CC(C)C)C(=O)N[C@@H](C)C(=O)N[C@H](C(=O)N[C@@H](CCCCN)C(=O)N[C@@H](CCCCN)C(=O)N[C@@H](Cc1ccc(O)cc1)C(=O)N[C@@H](CC(C)C)C(=O)N[C@@H](C)C(=O)N[C@@H](C)C(=O)N[C@H](C(=O)N[C@@H](CC(C)C)C(N)=O)C(C)C)C(C)C)[C@@H](C)O [Peptide 24] (Ac-HA[Ala(1H-tetrazol-5-yl)]GIFT[Ala(1H-tetrazol-5-yl)]AYSRYRKQLAVKKYLAAVL-NH2) | 98.1 | 94.3
CC[C@H](C)[C@H](NC(=O)CNC(=O)[C@H](Cc1nnn[nH]1)NC(=O)[C@H](C)NC(=O)[C@H](Cc1c[nH]cn1)NC(C)=O)C(=O)N[C@@H](Cc1ccccc1)C(=O)N[C@H](C(=O)N[C@@H](Cc1nnn[nH]1)C(=O)N[C@@H](CO)C(=O)N[C@@H](Cc1ccc(O)cc1)C(=O)N[C@@H](CO)C(=O)N[C@@H](CCCNC(=N)N)C(=O)N[C@@H](Cc1ccc(O)cc1)C(=O)N[C@@H](CCCNC(=N)N)C(=O)N[C@@H](CCCCN)C(=O)N[C@@H](CCC(N)=O)C(=O)N[C@@H](C)C(=O)N[C@@H](C)C(=O)N[C@H](C(=O)N[C@@H](CCCCN)C(=O)N[C@@H](CCCCN)C(=O)N[C@@H](Cc1ccc(O)cc1)C(=O)N[C@@H](CC(C)C)C(=O)N[C@@H](C)C(=O)N[C@@H](C)C(=O)N[C@H](C(=O)N[C@@H](CC(C)C)C(N)=O)C(C)C)C(C)C)[C@@H](C)O [Peptide 25] (Ac-HA[Ala(1H-tetrazol-5-yl)]GIFT[Ala(1H-tetrazol-5-yl)]SYSRYRKQAAVKKYLAAVL-NH2) | 95.8 | 91.2
